The values below come from ChEMBL document CHEMBL1770068, “Pharmacophore-based virtual screening and Bayesian model for the identification of potential human leukotriene A4 hydrolase inhibitors” (Eur J Med Chem, 2011).

Each structure is given as a SMILES string.

In general, IC50 refers to the concentration that inhibits the measured activity by half. Higher therefore signals a need for much substance.

The target of this assay is T1, Leukotriene A-4 hydrolase (Homo sapiens, UniProt P09960).
T1 sequence (P09960 whole entry): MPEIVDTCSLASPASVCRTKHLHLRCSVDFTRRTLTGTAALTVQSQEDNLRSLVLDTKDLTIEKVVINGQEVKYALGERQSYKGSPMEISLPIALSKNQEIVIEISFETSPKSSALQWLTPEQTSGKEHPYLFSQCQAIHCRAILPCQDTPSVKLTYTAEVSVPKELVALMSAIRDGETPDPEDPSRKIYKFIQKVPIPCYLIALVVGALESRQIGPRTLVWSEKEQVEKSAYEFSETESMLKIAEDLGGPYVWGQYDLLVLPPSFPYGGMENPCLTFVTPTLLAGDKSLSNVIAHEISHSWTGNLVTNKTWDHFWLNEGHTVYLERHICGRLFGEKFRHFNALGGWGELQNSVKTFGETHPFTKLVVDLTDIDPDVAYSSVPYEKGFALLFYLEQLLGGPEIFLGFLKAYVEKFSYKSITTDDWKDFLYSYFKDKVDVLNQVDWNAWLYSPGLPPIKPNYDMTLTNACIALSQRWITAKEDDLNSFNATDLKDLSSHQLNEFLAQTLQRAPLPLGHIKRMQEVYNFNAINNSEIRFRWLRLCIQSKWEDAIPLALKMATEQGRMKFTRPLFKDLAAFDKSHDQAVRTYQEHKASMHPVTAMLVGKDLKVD
Regarding `CN(CCCOc1ccc(Oc2ccc(-c3ccccc3)cc2)cc1)CCC(=O)O`, inhibition was half-maximal at 0.5 nM (IC50).
As for `O=C(O)c1ccc(CN2CC3CCCC2C(Nc2ccc(Oc4ccc(-c5ccccc5)cc4)cc2)C3)cc1` (stereo not given), the figure is 5 nM.
On to `O=C(O)c1ccc(CN2CC3CCCC2C(Nc2ccc(Oc4nc5ccccc5s4)cc2)C3)cc1` (stereo not given), for which the concentration for half-maximal inhibition (IC50) came to 9 nM.
`CC(NC(=O)C(CC(=O)O)Cc1ccccc1)C(=O)O` (stereo not given) had a concentration for half-maximal inhibition (IC50) of 300 nM.
Under `O=C(CC(Cc1ccccc1)C(=O)N1CCCCC1C(=O)O)NO` (stereo not given) stands 1800 nM.
